Measured values taken from ChEMBL document CHEMBL3351418, “In vitro induction of apoptosis by isosclerone from marine-derived fungus Aspergillus fumigatus” (Bioorg Med Chem Lett, 2014).
Activity calls are given as the source filed them. No cut-off for these calls is given here.

What was measured:
MCF7 [1] = assay: Downregulation of Akt gene expression in human MCF7 cells at 20 to 60 uM by RT-PCR analysis; assay type: functional, cell-based
MCF7 [2] = assay: Induction of apoptosis in human MCF7 cells assessed as increase in mitochondrial cytochrome C release at 20 to 60 uM after 24 hrs by Western blot analysis; assay type: functional, cell-based
MCF7 [3] = assay: Induction of apoptosis in human MCF7 cells assessed as down-regulation of Bcl-2 protein expression at 20 to 60 uM after 24 hrs by Western blot analysis; assay type: functional, cell-based
MCF7 [4] = assay: Induction of apoptosis in human MCF7 cells assessed as increase in caspase-8 gene expression by RT-PCR analysis; assay type: functional, cell-based
MCF7 [5] = assay: Induction of apoptosis in human MCF7 cells assessed as increase in caspase-8 expression by Western blot analysis; assay type: functional, cell-based
[6] = target: T1, Inhibitor of nuclear factor kappa-B kinase subunit alpha (Homo sapiens) (UniProt O15111); assay: Inhibition of human IKKalpha activation in human MCF7 cells by Western blot analysis; assay type: cell-based
T1 sequence (whole entry): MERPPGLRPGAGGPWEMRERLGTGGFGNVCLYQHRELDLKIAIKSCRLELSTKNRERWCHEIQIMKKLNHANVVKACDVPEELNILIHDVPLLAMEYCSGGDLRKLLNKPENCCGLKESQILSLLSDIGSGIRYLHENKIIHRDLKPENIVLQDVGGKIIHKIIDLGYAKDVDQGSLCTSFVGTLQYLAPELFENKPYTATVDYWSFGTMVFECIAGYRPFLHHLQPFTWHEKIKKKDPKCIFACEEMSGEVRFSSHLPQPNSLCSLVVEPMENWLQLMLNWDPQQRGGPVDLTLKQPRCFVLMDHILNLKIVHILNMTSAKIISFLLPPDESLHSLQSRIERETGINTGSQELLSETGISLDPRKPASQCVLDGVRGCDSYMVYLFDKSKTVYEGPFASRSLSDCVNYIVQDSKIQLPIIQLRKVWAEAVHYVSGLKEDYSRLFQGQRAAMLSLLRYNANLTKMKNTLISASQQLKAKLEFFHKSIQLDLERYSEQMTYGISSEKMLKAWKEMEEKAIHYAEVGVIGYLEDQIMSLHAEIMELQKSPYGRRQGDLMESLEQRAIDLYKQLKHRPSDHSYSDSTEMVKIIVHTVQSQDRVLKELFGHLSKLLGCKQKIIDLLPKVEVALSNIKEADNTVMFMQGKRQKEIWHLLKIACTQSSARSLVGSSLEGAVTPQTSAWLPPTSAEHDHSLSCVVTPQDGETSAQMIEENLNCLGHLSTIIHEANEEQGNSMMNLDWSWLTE

Caspase-3 = target: T2, Caspase-3 (Homo sapiens, UniProt P42574); assay: Binding affinity to procaspase-3 (unknown origin)
T2 sequence (P42574 whole entry): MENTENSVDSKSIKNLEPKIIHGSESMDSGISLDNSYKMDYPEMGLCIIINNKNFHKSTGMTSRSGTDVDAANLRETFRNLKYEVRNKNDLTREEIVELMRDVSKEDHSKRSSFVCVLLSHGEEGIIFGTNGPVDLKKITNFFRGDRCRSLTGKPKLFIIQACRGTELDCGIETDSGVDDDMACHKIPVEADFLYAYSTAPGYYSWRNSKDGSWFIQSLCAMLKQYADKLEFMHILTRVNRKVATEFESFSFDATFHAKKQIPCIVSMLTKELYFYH

MCF7 [7] = assay: Induction of apoptosis in human MCF7 cells assessed as up-regulation of Bax gene expression at 20 to 60 uM after 24 hrs by RT-PCR analysis; assay type: functional, cell-based
[8] = target: T1, Inhibitor of nuclear factor kappa-B kinase subunit alpha (Homo sapiens); assay: Inhibition of human IKK expression in human MCF7 cells after 24 hrs by Western blot analysis; assay type: cell-based
MCF7 [9] = assay: Inhibition of P50 protein expression in human MCF7 cells after 24 hrs by Western blot analysis; assay type: functional, cell-based
[10] = target: Nuclear factor NF-kappa-B complex (Homo sapiens) (UniProt Q00653+P19838+Q04206); assay: Inhibition of NF-kappaB activation in human MCF7 cells; assay type: cell-based
Chain of Nuclear factor NF-kappa-B complex (Homo sapiens) (P19838 whole entry, looked up): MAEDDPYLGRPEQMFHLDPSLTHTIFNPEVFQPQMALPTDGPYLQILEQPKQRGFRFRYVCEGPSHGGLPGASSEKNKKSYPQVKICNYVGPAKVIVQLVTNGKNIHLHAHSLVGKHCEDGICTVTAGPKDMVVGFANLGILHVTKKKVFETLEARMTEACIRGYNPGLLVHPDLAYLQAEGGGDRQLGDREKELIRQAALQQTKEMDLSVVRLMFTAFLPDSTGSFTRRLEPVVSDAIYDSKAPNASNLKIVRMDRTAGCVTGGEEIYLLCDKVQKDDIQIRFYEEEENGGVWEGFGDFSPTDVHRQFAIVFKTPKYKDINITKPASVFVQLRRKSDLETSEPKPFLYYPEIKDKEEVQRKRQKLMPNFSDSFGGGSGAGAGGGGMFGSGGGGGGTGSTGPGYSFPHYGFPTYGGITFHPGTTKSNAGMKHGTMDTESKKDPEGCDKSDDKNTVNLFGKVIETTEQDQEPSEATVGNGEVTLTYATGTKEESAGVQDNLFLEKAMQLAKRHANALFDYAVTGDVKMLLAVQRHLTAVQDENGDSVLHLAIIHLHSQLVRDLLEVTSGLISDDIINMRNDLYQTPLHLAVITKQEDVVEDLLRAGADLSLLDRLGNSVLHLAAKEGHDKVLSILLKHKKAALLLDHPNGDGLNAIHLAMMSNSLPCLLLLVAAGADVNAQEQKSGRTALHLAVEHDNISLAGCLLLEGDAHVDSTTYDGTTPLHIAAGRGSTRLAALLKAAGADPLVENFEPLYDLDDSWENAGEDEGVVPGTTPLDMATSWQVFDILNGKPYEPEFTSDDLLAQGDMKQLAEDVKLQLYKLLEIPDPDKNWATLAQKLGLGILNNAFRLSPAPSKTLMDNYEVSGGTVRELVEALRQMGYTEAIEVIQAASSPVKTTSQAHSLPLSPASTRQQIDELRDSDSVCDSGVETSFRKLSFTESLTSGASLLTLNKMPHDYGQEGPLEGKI
Chain of Nuclear factor NF-kappa-B complex (Homo sapiens) (Q00653 whole entry, looked up): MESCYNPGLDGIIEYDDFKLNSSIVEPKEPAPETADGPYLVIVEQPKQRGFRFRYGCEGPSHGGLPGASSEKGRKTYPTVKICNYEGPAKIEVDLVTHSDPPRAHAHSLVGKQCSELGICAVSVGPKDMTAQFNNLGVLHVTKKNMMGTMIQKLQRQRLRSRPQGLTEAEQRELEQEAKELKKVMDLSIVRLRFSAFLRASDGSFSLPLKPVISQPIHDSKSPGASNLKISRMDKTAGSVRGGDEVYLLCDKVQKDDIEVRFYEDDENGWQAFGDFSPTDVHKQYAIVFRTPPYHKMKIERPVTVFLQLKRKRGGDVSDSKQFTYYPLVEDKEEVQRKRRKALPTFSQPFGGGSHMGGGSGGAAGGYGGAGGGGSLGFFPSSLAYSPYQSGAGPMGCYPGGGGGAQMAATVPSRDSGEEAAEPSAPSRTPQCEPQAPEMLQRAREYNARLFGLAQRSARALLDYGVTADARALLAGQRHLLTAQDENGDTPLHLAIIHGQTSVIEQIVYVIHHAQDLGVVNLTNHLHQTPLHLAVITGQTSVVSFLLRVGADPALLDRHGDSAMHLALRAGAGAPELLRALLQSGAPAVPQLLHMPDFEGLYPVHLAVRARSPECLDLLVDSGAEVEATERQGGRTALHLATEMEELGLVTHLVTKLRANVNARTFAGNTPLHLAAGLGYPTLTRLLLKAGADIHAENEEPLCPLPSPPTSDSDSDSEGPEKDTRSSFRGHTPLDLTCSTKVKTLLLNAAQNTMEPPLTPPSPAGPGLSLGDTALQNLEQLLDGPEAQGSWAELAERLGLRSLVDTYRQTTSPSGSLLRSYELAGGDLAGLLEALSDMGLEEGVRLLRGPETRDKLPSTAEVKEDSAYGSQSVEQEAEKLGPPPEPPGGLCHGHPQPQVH
Chain of Nuclear factor NF-kappa-B complex (Homo sapiens) (Q04206 whole entry, looked up): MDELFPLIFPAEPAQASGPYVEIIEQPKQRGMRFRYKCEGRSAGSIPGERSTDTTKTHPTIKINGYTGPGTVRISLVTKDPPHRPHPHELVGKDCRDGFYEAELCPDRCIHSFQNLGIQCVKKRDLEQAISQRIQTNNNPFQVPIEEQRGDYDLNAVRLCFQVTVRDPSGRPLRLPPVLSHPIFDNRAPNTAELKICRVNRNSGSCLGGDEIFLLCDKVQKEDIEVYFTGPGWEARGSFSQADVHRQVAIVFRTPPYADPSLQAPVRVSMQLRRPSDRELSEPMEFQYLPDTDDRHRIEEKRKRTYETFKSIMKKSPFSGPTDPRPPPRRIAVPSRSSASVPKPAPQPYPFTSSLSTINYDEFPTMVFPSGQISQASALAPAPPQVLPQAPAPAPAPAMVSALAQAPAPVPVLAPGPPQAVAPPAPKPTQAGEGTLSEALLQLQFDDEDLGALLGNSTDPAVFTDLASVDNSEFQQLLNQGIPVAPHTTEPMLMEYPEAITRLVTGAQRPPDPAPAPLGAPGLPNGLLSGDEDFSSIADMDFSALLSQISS

MCF7 [11] = assay: Cytotoxicity against human MCF7 cells assessed as cell viability at 20 uM by MTT assay; assay type: functional, cell-based; settings: TDE = time-dependent effect
MCF7 [12] = assay: Downregulation of PI3K protein expression in human MCF7 cells at 20 to 60 uM by Western blot analysis; assay type: functional, cell-based
MCF7 [13] = assay: Induction of apoptosis in human MCF7 cells assessed as increase in mitochondrial Apaf-1 release at 20 to 60 uM after 24 hrs by Western blot analysis; assay type: functional, cell-based
MCF7 [14] = assay: Cytotoxicity against human MCF7 cells assessed as cell viability after 24 to 36 hrs by MTT assay; assay type: functional, cell-based
MCF7 [15] = assay: Induction of apoptosis in human MCF7 cells assessed as increase in caspase-9 expression by Western blot analysis; assay type: functional, cell-based
[16] = target: Apoptosis regulator Bcl-2 (Homo sapiens, UniProt P10415); assay: Binding affinity to Bcl-2 (unknown origin)
Chain of Apoptosis regulator Bcl-2 (P10415 whole entry): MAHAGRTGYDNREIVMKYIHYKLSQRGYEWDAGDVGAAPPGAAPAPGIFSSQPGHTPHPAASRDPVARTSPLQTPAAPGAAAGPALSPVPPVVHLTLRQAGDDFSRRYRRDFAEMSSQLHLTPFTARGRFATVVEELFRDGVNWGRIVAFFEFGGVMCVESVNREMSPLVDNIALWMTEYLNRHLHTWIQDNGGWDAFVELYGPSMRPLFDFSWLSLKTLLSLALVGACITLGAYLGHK

MCF7 [17] = assay: Cytotoxicity against human MCF7 cells assessed as cell viability at 60 uM after 36 hrs by MTT assay (Rvb =100%); assay type: functional; settings: MCF7, 36 h, read-out: Activity
MCF7 [18] = assay: Induction of apoptosis in human MCF7 cells assessed as increase in DNA damage after 24 hrs by Hoechst staining based inverted fluorescent microscopy; assay type: functional, cell-based
[19] = target: T3, Inhibitor of nuclear factor kappa-B kinase subunit beta (Homo sapiens) (UniProt O14920); assay: Inhibition of human IKKbeta activation in human MCF7 cells by Western blot analysis; assay type: cell-based
T3 sequence (whole entry): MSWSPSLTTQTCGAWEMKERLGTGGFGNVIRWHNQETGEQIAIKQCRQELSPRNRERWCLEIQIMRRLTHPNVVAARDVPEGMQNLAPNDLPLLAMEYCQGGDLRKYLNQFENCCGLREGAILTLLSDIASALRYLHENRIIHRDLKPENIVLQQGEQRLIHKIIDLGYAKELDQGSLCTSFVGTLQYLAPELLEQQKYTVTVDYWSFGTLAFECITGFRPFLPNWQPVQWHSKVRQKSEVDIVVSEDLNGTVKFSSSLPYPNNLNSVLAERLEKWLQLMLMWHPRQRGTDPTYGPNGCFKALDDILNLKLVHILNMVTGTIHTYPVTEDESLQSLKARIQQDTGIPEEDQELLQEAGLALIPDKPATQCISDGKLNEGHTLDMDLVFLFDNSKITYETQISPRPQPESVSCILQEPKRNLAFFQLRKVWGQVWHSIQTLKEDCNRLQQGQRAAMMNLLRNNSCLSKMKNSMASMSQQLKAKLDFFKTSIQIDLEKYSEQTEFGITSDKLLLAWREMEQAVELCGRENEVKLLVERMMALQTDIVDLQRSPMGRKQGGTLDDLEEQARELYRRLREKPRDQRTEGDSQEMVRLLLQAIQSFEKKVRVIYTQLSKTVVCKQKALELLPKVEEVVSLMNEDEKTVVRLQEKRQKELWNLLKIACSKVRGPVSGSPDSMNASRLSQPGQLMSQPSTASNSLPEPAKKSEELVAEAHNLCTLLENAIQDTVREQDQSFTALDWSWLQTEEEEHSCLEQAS

MCF7 [20] = assay: Downregulation of Akt protein expression in human MCF7 cells at 20 to 60 uM by Western blot analysis; assay type: functional, cell-based
MCF7 [21] = assay: Induction of apoptosis in human MCF7 cells assessed as increase in caspase-3 gene expression by RT-PCR analysis; assay type: functional, cell-based
MCF7 [22] = assay: Cytotoxicity against human MCF7 cells assessed as cell viability at 40 uM after 36 hrs by MTT assay (Rvb =100%); assay type: functional; settings: MCF7, 36 h, read-out: Activity
MCF7 [23] = assay: Cytotoxicity against human MCF7 cells assessed as cell viability at 20 uM after 24 hrs by MTT assay (Rvb =100%); assay type: functional; settings: MCF7, 24 h, read-out: Activity
MCF7 [24] = assay: Induction of apoptosis in human MCF7 cells assessed as increase in caspase-3 expression by Western blot analysis; assay type: functional, cell-based
MCF7 [25] = assay: Induction of apoptosis in human MCF7 cells assessed as up-regulation of Bax protein expression at 20 to 60 uM after 24 hrs by Western blot analysis; assay type: functional, cell-based
MCF7 [26] = assay: Induction of apoptosis in human MCF7 cells assessed as increase in DNA fragmentation […] by agarose gel electrophoresis; assay type: functional, cell-based
MCF7 [27] = assay: Cytotoxicity against human MCF7 cells assessed as cell viability at 20 uM after 36 hrs by MTT assay (Rvb =100%); assay type: functional; settings: MCF7, 36 h, read-out: Activity
MCF7 [28] = assay: Effect on phosphorylation of Akt in human MCF7 cells at 20 to 60 uM by Western blot analysis; assay type: cell-based
MCF7 [29] = assay: Cytotoxicity against human MCF7 cells assessed as cell viability at 60 uM after 24 hrs by MTT assay (Rvb =100%); assay type: functional; settings: MCF7, 24 h, read-out: Activity
MCF7 [30] = assay: Downregulation of PI3K gene expression in human MCF7 cells at 20 to 60 uM by RT-PCR analysis; assay type: functional, cell-based
MCF7 [31] = assay: Induction of apoptosis in human MCF7 cells assessed as increase in caspase-9 gene expression by RT-PCR analysis; assay type: functional, cell-based
MCF7 [32] = assay: Inhibition of P65 protein expression in human MCF7 cells after 24 hrs by Western blot analysis; assay type: functional, cell-based
MCF7 [33] = assay: Cytotoxicity against human MCF7 cells assessed as cell viability at 40 uM after 24 hrs by MTT assay (Rvb =100%); assay type: functional; settings: MCF7, 24 h, read-out: Activity

inhibition [6]: Active | Ki (Caspase-3): 732 µM | inhibition [8]: Active | inhibition [10]: Dose-dependent effect | Ki [16]: 475 µM | inhibition [19]: Active
Structure (SMILES): O=C1CC[C@H](O)c2cccc(O)c21
inhibition (MCF7 [1]): Active | Activity (MCF7 [2]): Active | inhibition (MCF7 [3]): Active | Activity (MCF7 [4]): Dose-dependent effect | Activity (MCF7 [5]): Dose-dependent effect | Activity (MCF7 [7]): Active | inhibition (MCF7 [9]): Dose-dependent effect | inhibition (MCF7 [11]): tde | inhibition (MCF7 [12]): Active | Activity (MCF7 [13]): Active | inhibition (MCF7 [14]): Dose-dependent effect | Activity (MCF7 [15]): Dose-dependent effect | viability at 60 µM (MCF7 [17]): 50% | Activity (MCF7 [18]): Dose-dependent effect | inhibition (MCF7 [20]): Active | Activity (MCF7 [21]): Dose-dependent effect | viability at 40 µM (MCF7 [22]): 66% | viability at 20 µM (MCF7 [23]): 97% | Activity (MCF7 [24]): Dose-dependent effect | Activity (MCF7 [25]): Active | Activity (MCF7 [26]): Dose-dependent effect | viability at 20 µM (MCF7 [27]): 87% | inhibition (MCF7 [28]): inactive | viability at 60 µM (MCF7 [29]): 70% | inhibition (MCF7 [30]): Active | Activity (MCF7 [31]): Dose-dependent effect | inhibition (MCF7 [32]): Dose-dependent effect | viability at 40 µM (MCF7 [33]): 89%
